Results reported in patent US20080318910A1, “Controlled-Release Oral Dosage Form” (MISTRAL PHARMA, INC., priority 2005, published 2008).
Values after ≈ are worked out from the molar mass of the structure shown.

Experiment: physchem

| Compound | solubility (aqueous buffer, solubility, pH higher than 4.8) | solubility (aqueous buffer, solubility, pH lower than 4.8) | solubility (pH 2, simulated gastric fluid) | solubility (pH 5.5, aqueous buffer) |
| --- | --- | --- | --- | --- |
| C/C=C/C=C/C(=O)O [Sorbic acid] | ~333000 µg/mL (≈ 2970 mM) | ~2500 µg/mL (≈ 22.3 mM) |  |  |
| CCC(COC(=O)c1cc(OC)c(OC)c(OC)c1)(c1ccccc1)N(C)C (stereo not shown) [Trimebutine] |  |  | ~11000 µg/mL (≈ 28.4 mM) | 1000 µg/mL (≈ 2.58 mM) |
